These are literature values, as cited in paper PMC7321301, “Characteristics of New Peptides GQLGEHGGAGMG, GEHGGAGMGGGQFQPV, EQGFLPGPEESGR, RLARAGLAQ, YGNPVGGVGH, and GNPVGGVGHGTTGT as Inhibitors of Enzymes Involved in Metabolic Syndrome and Antimicrobial Potential” (Molecules, 2020).

One series concerns ACE. Conditions: cited from earlier work.
The next series relates to α-amylase. Conditions: no reference given; cited from earlier work.

Read-outs that look alike come from different tables or passages of the source. No end group written: not given here.

Regarding `C[C@H](CS)C(=O)N1CCC[C@H]1C(=O)O` [Captropril], the “type of ACE inhibition” value in the series with ACE was “competitive inhibitor”.
On to `C[C@H]1O[C@H](O[C@H]2[C@H](O)[C@@H](O)[C@@H](O[C@H]3[C@H](O)[C@@H](O)C(O)O[C@@H]3CO)O[C@@H]2CO)[C@H](O)[C@@H](O)[C@@H]1N[C@H]1C=C(CO)[C@@H](O)[C@H](O)[C@H]1O` (stereo partly shown) [acarbose], for which the “type of α-amylase inhibition” value with α-amylase is recorded as “competitive inhibition”.
Regarding AFKDEDTEEVPFR, in the series with ACE, the “ACE inhibitory IC50” value is on record as 127 µg/mL.
Turning to GKHVAVHAR [GHA-8], in the series on ACE, the “ACE inhibitory activity” value is given as “exhibited ACE inhibitory activity”.
With GKPVAVPA [GA-8], the “ACE inhibitory activity” value in the series with ACE is “exhibited ACE inhibitory activity”.
TTFHTSGY: the “type of ACE inhibition” value in the series on ACE (inhibition kinetic analysis) is recorded as “competitive inhibitor”.
Regarding “Thα1: peptide Thα1, ACE inhibitory, from another study (SDAAVDTSSEITTKDLKEKKEVVEEAEN; ends and bridges not checked; UniProt P06454 2-29, looked up)”, in the series with ACE, the “ACE inhibitory IC50” value is recorded as 2.5 µg/mL.
